Source: patent US8987267B2, “2-substituted-8-alkyl-7-OXO-7,8-dihydropyrido[2,3-D]pyrimidine-6-carbonitriles and uses thereof in treating proliferative disorders” (Temple University—of the Commonwealth System of Higher …, priority 2010, dated 2015)

Key:
Experiment in all cases: Kinase inhibition panel
Type in all cases: biochemical
Conditions in all cases: 10 μM ATP
PDGFRb = PDGFRb (Homo sapiens, UniProt P09619)
CDK6/cyclinD3 = CDK6/cyclinD3 (Homo sapiens, UniProt Q00534)
CDK7/cyclinH/MNAT1 = CDK7/cyclinH/MNAT1 (Homo sapiens, UniProt P50613)
FLT3 = FLT3 (Homo sapiens, UniProt P36888)
Sequence of FLT3 (P36888 27-993, species assumed): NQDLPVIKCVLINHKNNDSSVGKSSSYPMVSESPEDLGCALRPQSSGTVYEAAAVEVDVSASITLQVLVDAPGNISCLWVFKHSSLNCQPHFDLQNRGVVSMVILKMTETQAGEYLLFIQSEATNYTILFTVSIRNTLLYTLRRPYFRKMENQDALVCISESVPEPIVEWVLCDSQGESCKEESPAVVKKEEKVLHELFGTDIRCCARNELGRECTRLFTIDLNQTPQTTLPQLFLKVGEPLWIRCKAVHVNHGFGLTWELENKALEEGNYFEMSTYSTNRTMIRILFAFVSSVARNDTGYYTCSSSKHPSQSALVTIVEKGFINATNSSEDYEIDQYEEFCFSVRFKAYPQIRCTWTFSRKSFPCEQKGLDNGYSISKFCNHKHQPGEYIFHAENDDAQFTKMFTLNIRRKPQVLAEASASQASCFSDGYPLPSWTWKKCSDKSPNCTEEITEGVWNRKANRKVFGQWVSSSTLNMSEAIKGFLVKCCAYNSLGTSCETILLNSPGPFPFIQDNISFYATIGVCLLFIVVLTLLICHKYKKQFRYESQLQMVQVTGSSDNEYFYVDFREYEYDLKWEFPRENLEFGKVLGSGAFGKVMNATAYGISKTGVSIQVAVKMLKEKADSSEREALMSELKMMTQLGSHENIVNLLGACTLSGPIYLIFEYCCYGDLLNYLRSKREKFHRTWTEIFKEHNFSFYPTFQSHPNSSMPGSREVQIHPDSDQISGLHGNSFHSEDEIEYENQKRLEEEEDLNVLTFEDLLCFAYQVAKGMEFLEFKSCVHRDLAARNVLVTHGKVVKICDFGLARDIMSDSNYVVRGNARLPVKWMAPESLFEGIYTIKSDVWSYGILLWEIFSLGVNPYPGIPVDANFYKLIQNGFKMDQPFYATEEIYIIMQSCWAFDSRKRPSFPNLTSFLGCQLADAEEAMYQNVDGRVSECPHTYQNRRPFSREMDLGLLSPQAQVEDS

FYN = FYN (Homo sapiens, UniProt P06241)
TTK = TTK (Homo sapiens, UniProt P33981)
PKCnu/PRK D3 = PKCnu/PRK D3 (Homo sapiens, UniProt O94806)
PKCmu = PKCmu (Homo sapiens, UniProt Q15139)
CDK4/Cyclin D3 = CDK4/Cyclin D3 (Homo sapiens, UniProt P11802)
LOK/STK10 = LOK/STK10 (Homo sapiens, UniProt O94804)
Sequence of LOK/STK10 (O94804 whole entry): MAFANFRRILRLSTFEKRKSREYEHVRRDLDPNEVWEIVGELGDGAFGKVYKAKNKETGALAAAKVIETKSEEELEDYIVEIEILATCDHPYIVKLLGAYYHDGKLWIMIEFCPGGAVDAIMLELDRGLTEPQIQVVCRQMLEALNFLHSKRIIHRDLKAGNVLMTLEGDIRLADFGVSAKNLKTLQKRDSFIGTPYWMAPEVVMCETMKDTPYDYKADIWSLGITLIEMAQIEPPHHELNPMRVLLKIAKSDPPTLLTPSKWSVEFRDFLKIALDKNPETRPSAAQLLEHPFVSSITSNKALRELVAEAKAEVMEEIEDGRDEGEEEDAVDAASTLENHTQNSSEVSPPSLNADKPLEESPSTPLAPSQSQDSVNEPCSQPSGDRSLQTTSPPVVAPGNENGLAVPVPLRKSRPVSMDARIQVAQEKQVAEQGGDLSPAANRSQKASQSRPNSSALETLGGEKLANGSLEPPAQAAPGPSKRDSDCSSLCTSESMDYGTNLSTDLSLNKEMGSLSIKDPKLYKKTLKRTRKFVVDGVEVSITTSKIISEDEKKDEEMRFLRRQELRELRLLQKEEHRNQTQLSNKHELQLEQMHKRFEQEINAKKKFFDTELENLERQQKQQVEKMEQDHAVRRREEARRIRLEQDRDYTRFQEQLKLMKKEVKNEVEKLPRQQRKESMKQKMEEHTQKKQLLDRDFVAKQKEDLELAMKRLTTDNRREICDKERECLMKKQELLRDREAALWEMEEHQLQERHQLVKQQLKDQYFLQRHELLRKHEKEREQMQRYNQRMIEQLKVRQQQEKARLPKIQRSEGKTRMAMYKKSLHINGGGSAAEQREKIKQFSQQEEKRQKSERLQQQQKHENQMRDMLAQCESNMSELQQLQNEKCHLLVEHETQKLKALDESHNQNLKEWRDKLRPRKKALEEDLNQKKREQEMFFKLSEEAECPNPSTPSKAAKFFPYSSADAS
Description: (§1) The compounds in Table 4 were tested for the ability to inhibit the kinase activity of the listed protein kinases.

SIK2/SNF1LK2 = SIK2/SNF1LK2 (Homo sapiens, UniProt Q9H0K1)
Description: as §1

ABL1 = ABL1 (Homo sapiens, UniProt P00519)
Description: as §1

EPHA1 = EPHA1 (Homo sapiens, UniProt P21709)
Description: as §1

FMS = FMS (Homo sapiens, UniProt P07333)
Description: as §1

CDK9/cyclin K = CDK9/cyclin K (Homo sapiens, UniProt P50750)
Description: as §1

LYNB = LYNB (Homo sapiens, UniProt P07948)
Sequence of LYNB (P07948 1-491 isoform P07948-2, species assumed): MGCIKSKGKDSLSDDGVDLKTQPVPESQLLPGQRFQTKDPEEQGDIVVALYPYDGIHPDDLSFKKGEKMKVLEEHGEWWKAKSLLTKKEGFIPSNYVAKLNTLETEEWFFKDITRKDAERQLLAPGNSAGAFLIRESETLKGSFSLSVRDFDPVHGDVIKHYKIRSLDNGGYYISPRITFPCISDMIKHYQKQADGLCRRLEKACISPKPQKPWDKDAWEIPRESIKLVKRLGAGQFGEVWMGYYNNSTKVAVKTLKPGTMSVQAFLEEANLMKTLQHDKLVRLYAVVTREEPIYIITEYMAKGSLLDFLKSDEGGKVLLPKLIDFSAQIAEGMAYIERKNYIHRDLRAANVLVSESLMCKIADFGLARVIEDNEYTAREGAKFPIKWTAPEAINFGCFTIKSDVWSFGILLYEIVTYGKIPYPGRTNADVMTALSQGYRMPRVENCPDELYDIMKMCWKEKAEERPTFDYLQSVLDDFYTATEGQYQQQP
Description: as §1

LIMK1 = LIMK1 (Homo sapiens, UniProt P53667)
Description: as §1

RIPK2 = RIPK2 (Homo sapiens, UniProt O43353)
Description: as §1

ABL2/ARG = ABL2/ARG (Homo sapiens, UniProt P42684)
Description: as §1

PAK3 = PAK3 (Homo sapiens, UniProt O75914)
Description: as §1

FLTINEGFRI = FLTINEGFRI (Homo sapiens, UniProt P17948)
Description: as §1

CDK5/p25 = CDK5/p25 (Homo sapiens, UniProt Q00535)
Sequence of CDK5/p25 (Q00535 whole entry, species assumed): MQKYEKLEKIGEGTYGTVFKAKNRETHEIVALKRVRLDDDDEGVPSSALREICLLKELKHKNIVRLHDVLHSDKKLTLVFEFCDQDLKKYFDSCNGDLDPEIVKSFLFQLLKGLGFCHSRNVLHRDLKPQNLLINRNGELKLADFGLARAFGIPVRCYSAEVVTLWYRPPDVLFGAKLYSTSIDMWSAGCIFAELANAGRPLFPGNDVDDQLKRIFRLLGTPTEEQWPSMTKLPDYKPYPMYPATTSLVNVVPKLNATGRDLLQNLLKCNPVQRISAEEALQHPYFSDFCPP
Sequence of CDK5/p25 (Q15078 99-307 partner limits assumed, species assumed): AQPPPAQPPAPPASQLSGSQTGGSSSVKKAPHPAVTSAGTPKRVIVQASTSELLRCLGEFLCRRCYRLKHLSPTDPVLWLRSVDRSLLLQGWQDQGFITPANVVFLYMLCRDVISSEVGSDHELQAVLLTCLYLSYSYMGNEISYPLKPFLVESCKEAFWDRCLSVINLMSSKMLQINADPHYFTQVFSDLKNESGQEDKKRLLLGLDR
Description: as §1

SNARK/NUAK2 = SNARK/NUAK2 (Homo sapiens, UniProt Q9H093)
Description: as §1

CDK4/Cyclin D1 = CDK4/Cyclin D1 (Homo sapiens, UniProt P11802)
Description: as §1

TGFbR2 = TGFbR2 (Homo sapiens, UniProt P37173)
Sequence of TGFbR2 (P37173 23-567, species assumed): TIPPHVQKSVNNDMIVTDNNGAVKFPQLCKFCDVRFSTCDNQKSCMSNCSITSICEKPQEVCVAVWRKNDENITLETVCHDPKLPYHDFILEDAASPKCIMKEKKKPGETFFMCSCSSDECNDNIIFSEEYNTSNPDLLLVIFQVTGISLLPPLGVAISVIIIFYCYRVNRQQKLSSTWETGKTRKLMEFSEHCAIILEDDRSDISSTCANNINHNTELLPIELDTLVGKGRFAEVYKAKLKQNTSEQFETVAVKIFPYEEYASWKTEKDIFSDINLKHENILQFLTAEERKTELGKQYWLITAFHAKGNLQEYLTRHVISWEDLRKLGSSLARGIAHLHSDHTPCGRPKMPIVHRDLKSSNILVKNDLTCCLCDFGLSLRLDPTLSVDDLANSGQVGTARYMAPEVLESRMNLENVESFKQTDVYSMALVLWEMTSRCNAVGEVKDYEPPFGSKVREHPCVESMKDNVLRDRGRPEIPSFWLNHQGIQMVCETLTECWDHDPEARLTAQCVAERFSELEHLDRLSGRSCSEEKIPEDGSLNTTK
Description: as §1

LCK = LCK (Homo sapiens, UniProt P06239)
Description: as §1

FGFR3 = FGFR3 (Homo sapiens, UniProt P22607)
Description: as §1

EphB4 = EphB4 (Homo sapiens, UniProt P54760)
Description: as §1

CDK2/cyclinE = CDK2/cyclinE (Homo sapiens, UniProt P24941)
Description: as §1

TAOK2ITA01 = TAOK2ITA01 (Homo sapiens, UniProt Q9UL54)
Description: as §1

CDK5/p35 = CDK5/p35 (Homo sapiens, UniProt Q00535)
Description: as §1

CDK2/cyclinA = CDK2/cyclinA (Homo sapiens, UniProt P24941)
Description: as §1

FGFR1 = FGFR1 (Homo sapiens, UniProt P11362)
Description: as §1

c-Src = c-Src (Homo sapiens, UniProt P12931)
Sequence of c-Src (P12931 whole entry, species assumed): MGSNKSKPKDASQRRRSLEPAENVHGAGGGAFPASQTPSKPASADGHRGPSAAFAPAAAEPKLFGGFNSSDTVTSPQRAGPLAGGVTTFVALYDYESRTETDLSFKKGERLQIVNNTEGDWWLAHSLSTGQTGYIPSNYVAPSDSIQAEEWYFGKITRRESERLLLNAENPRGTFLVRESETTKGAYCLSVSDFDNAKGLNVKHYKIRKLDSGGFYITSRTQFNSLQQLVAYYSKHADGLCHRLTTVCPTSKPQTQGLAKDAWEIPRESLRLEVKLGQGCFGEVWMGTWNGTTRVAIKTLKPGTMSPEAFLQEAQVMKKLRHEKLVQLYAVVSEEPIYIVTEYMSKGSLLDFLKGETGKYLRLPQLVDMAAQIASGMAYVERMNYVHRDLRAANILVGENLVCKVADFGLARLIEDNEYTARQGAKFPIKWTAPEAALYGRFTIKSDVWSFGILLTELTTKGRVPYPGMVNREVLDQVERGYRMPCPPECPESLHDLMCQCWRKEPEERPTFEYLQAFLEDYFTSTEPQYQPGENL
Description: as §1

EphB1 = EphB1 (Homo sapiens, UniProt P54762)
Sequence of EphB1 (P54762 18-984, species assumed): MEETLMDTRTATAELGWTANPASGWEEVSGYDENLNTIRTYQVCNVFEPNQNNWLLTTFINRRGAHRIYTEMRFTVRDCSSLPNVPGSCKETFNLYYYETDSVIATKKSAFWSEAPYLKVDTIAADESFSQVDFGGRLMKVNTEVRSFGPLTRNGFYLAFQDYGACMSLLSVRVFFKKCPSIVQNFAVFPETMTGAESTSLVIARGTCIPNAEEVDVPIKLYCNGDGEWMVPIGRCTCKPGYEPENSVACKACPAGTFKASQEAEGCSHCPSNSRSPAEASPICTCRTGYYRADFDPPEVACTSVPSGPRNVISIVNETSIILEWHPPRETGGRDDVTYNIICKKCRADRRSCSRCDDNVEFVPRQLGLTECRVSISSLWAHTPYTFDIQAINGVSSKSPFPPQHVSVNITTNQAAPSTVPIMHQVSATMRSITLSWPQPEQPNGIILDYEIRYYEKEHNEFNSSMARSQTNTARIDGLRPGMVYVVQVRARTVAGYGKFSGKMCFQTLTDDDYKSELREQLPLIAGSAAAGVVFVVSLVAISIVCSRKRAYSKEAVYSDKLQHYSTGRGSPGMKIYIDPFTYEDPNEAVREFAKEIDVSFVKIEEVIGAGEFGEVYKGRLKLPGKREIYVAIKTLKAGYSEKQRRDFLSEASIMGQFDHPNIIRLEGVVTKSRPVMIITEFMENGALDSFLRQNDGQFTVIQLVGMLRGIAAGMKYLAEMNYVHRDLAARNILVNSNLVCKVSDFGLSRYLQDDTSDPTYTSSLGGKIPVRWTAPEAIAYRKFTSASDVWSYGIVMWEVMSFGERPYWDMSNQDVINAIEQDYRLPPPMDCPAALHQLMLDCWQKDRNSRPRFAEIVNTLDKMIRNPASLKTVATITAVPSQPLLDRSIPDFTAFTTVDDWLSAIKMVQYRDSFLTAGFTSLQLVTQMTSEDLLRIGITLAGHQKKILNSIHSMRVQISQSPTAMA
Description: as §1

CDK3/cyclinE = CDK3/cyclinE (Homo sapiens, UniProt Q00526)
Description: as §1

CDK6/cyclinD1 = CDK6/cyclinD1 (Homo sapiens, UniProt Q00534)
Description: as §1

CDK9/cyclinT1 = CDK9/cyclinT1 (Homo sapiens, UniProt P50750)
ARK5 = ARK5 (Homo sapiens, UniProt O60285)

Work on `CN1CCN(c2ccc(Nc3ncc4cc(C#N)c(=O)n(C5CCCC5)c4n3)cc2)CC1` [Compound 12, 8-cyclopentyl-2-((4-(4-methylpiperazin-1-yl)phenyl)amino)-7-oxo-7,8-dihydropyrido[2,3-d]pyrimidine-6-carbonitrile] yielded an IC50 (PDGFRb) of 2.64 nM, an IC50 (CDK6/cyclinD3) of 38.7 nM and an IC50 (CDK7/cyclinH/MNAT1) of over 10000 nM. It also gave an IC50 (FLT3) of 13.6 nM, an IC50 (FYN) of 26.6 nM and an IC50 (TTK) of 156 nM. The IC50 (PKCnu/PRK D3) was 55.8 nM, the IC50 (PKCmu) was 142 nM and the IC50 (CDK4/Cyclin D3) was 21.2 nM. For the same compound, the IC50 (LOK/STK10) was 181 nM, the IC50 (SIK2/SNF1LK2) was 96.8 nM and the IC50 (ABL1) was 75.6 nM. For the same compound, the IC50 (EPHA1) was 37.1 nM, the IC50 (FMS) was 1.46 nM and the IC50 (CDK9/cyclin K) was 27.1 nM. It also gave an IC50 (LYNB) of 6650 nM, an IC50 (LIMK1) of 70.8 nM and an IC50 (RIPK2) of 40.8 nM. It also gave an IC50 (ABL2/ARG) of 91.6 nM, an IC50 (PAK3) of 1930 nM and an IC50 (FLTINEGFRI) of 94.1 nM. For the same compound, the IC50 (CDK5/p25) was 264 nM, the IC50 (SNARK/NUAK2) was 20.7 nM and the IC50 (CDK4/Cyclin D1) was 4 nM. It also gave an IC50 (TGFbR2) of 62.3 nM, an IC50 (LCK) of 50.4 nM and an IC50 (FGFR3) of 124 nM. It also gave an IC50 (EphB4) of 120 nM, an IC50 (CDK2/cyclinE) of 770 nM and an IC50 (TAOK2ITA01) of 69.6 nM. It also gave an IC50 (CDK5/p35) of 181 nM, an IC50 (CDK2/cyclinA) of 97.3 nM and an IC50 (FGFR1) of 68.2 nM. The IC50 (c-Src) was 93 nM, the IC50 (EphB1) was 26.7 nM and the IC50 (CDK3/cyclinE) was 3220 nM. For the same compound, the IC50 (CDK6/cyclinD1) was 18.4 nM, the IC50 (CDK9/cyclinT1) was 85.4 nM and the IC50 (ARK5) was 7.85 nM.
